Where two headings read alike, the source gives them in different places.
Tests used:
[1] = target: 229E Mpro (Human coronavirus 229E, UniProt P0C6X1); test: 229E Mpro enzymatic assay (standard methods, SARS-CoV2 Mpro assay given as exemplary); type: biochemical, human coronavirus (HCov) 229E
Procedure, shortened: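 Run by standard methods, with the SARS-CoV-2 Mpro protocol given as the model: E. coli-expressed C-His6 protease at 25 nM and substrate at 25 μM (Km 13.5 μM). Buffer pH 7.3 with 5 mM TCEP and 0.1% BSA; % inhibition versus controls fitted to variable-slope log(inhibitor)-response for IC50.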

[2] = test system: HCoV 229E; test: HCoV 229E cytopathic effect (CPE) assay, CellTiter Glo; type: cell-based, human coronavirus (HCov) 229E; settings: protection of virus-induced CPE
Protocol: Example 238: Evaluation of antiviral activity of compounds against human coronavirus (HCov) 229E and OC43 in the cytopathic effect (CPE) assays
Compounds were assayed using standard methods against multiple coronaviral strains, including HCoV 229E and OC43 strains. The antiviral activity of compounds was calculated based on the protection of the virus-induced CPE at each concentration normalized by the virus control.
Cytopathic effect (CPE) was measured by CellTiter Glo following the manufacturer's manual. The antiviral activity of compounds was calculated based on the protection of the virus-induced CPE at each concentration normalized by the virus control.
Cell viability was measured with CellTiter Glo.

[3] = Cytotoxicity in parallel to the 229E CPE assay, without virus infection, CellTiter Glo; settings: 229E CC50, without virus infection
Protocol: Reagents and instruments used in this assay include luminescent cell viability assay kit CellTiter Glo (Promega) and Microplate Reader Synergy2 (BioTek).
The cytotoxicity of compounds was assessed under the same conditions, but without virus infection, in parallel. Cell viability was measured with CellTiter Glo. The antiviral activity and cytotoxicity of compounds were expressed as % Inhibition and % Viability, respectively, and calculated with formulas.

[4] = target: COVID-19 (nCoV-2019, SARS-CoV2) Mpro (Severe acute respiratory syndrome coronavirus 2, UniProt P0DTD1); test: COVID-19 (nCoV-2019, SARS-CoV2) Mpro enzymatic assay; type: biochemical; settings: 25 nM Mpro, 25 μM substrate; read-out: COVID-19 Mpro IC50
[5] = test system: HCov OC43; test: HCoV OC43 cytopathic effect (CPE) assay, CellTiter Glo; type: cell-based, human coronavirus (HCov) OC43
[6] = Betacoronavirus 1, OC43, read-out: OC43 IC50 (uM) MEDIAN, median
[7] = read-out: OC43 IC50 (uM) MEDIAN, median

229E Mpro, sequence (P0C6X1 2966-3267): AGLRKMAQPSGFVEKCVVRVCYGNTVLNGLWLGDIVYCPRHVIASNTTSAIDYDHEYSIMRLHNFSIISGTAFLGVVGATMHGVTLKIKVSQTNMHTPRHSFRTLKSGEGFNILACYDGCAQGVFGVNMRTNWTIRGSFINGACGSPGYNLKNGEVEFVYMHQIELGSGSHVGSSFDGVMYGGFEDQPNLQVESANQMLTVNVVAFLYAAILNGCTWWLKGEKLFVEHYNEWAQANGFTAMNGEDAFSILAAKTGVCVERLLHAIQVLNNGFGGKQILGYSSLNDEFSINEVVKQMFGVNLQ

Structure (SMILES): Cc1nnsc1C(C(=O)NC1CCCCC1)N(C(=O)c1cnc[nH]1)c1ccc(C(C)(C)C)cc1 (centres unmarked) [Compound 109]
- EC50 ([1]; 229E Mpro EC50): 2 to 10 µM
- EC50 ([2]; unidentified human coronavirus): 2 to 10 µM
- CC50 [3]: > 30 µM
- IC50 [4]: > 30 µM

Structure (SMILES): CC(C)(C)c1ccc(N(C(=O)C2CN(C#N)C2)C(C(=O)NC2CCCCC2)c2cccnc2)cc1 (centres unmarked) [Compound 125, N-(4-tert-butylphenyl)-1-cyano-N-[2-(cyclohexylamino)-2-oxo-1-(3-pyridyl)ethyl]azetidine-3-carboxamide]
- EC50 ([1]; 229E Mpro EC50): 10 to 30 µM
- EC50 ([2]; unidentified human coronavirus): 2 to 10 µM
- CC50 [3]: 10 to 30 µM
- IC50 [4]: 10 to 30 µM

Structure (SMILES): C[C@@H]1CC[C@H](C(=O)N(c2ccc(C(C)(C)C)cc2)C(C(=O)NC2CCCCC2)c2cccnc2)N1C#N (single isomer, unassigned) [Compound 244 Isomer 1]
- EC50 ([1]; 229E Mpro EC50): < 2 µM
- EC50 ([2]; unidentified human coronavirus): < 2 µM
- CC50 [3]: > 30 µM
- IC50 [4]: 2 to 10 µM

Structure (SMILES): CN1CCN(C#N)C(C(=O)N(c2ccc(C(C)(C)C)cc2)C(C(=O)NC2CCCCC2)c2cccnc2)C1 (single isomer, unassigned) [Compound 217 Isomer 2, N-(4-tert-butylphenyl)-1-cyano-N-[2-(cyclohexylamino)-2-oxo-1-(3-pyridyl)ethyl]-4-methyl-piperazine-2-carboxamide]
- EC50 ([1]; 229E Mpro EC50): < 2 µM
- EC50 ([2]; unidentified human coronavirus): < 2 µM
- CC50 [3]: > 30 µM
- IC50 [4]: < 2 µM

Structure (SMILES): CC(C)(C)c1ccc(N(C(=O)[C@H]2C[C@@H](O)CN2C#N)C(C(=O)NC2CCCCC2)c2cccnc2)cc1 (single isomer, unassigned) [Compound 254 Isomer 2]
- EC50 ([1]; read-out: 229E Mpro EC50): < 2 µM
- IC50 [5, 6]: < 2 µM
- CC50 [3]: > 30 µM
- IC50 [4]: < 2 µM

Structure (SMILES): CC(C)(C)c1ccc(N(C(=O)c2cnc[nH]2)C(C(=O)NC2CCCCC2)c2cccnc2)c(C#N)n1 (centres unmarked) [Compound 117]
- EC50 ([1]; 229E Mpro EC50): 2 to 10 µM
- EC50 ([2]; unidentified human coronavirus): 2 to 10 µM
- CC50 [3]: > 30 µM
- IC50 [4]: > 30 µM

Structure (SMILES): CC(C)(C)c1ccc(N(C(=O)c2c[nH]cn2)C(C(=O)NC2CCCCC2)c2cccnc2C#N)cc1 (centres unmarked) [Compound 100, N-(4-tert-butylphenyl)-N-[1-(2-cyano-3-pyridyl)-2-(cyclohexylamino)-2-oxo-ethyl]-1H-imidazole-5-carboxamide]
- EC50 ([1]; 229E Mpro EC50): 2 to 10 µM
- EC50 ([2]; unidentified human coronavirus): 2 to 10 µM
- CC50 [3]: > 30 µM
- IC50 [4]: 10 to 30 µM

Structure (SMILES): CC(C)(C)c1ccc(N(C(=O)c2nsnc2Cl)C(C(=O)NC2CCCCC2)c2cccnc2)cc1 (centres unmarked) [Compound 123, N-(4-(tert-butyl)phenyl)-4-chloro-N-(2-(cyclohexylamino)-2-oxo-1-(pyridin-3-yl)ethyl)-1,2,5-thiadiazole-3-carboxamide]
- EC50 ([1]; 229E Mpro EC50): < 2 µM
- EC50 ([2]; unidentified human coronavirus): < 2 µM
- CC50 [3]: > 30 µM
- IC50 [4]: < 2 µM

Structure (SMILES): CN1CCN(C(=O)C(c2cccnc2)N(C(=O)[C@H]2CCCN2C#N)c2ccc(C(C)(C)C)cc2)CC1 (mixture of isomers) [Compound 967, (2R)—N-(4-(tert-butyl)phenyl)-1-cyano-N-(2-(4-methylpiperazin-1-yl)-2-oxo-1-(pyridin-3-yl)ethyl)pyrrolidine-2-carboxamide]
- EC50 ([1]; 229E Mpro EC50): < 2 µM
- EC50 ([2]; unidentified human coronavirus): 2 to 10 µM
- IC50 [5, 6]: 2 to 10 µM
- IC50 [4]: 2 to 10 µM

Structure (SMILES): Cn1cnnc1C(C(=O)NC1CCCCC1)N(C(=O)[C@H]1C[C@@H](O)CN1C#N)c1ccc(C(C)(C)C)cc1 (single isomer, unassigned) [659 Isomer 2]
- EC50 ([1]; read-out: 229E Mpro EC50): < 2 µM
- EC50 [2]: 2 to 10 µM
- IC50 [5, 7]: 2 to 10 µM
- IC50 [4]: 2 to 10 µM

Structure (SMILES): CO[C@@H]1C[C@H](C(=O)N(c2ccc(C(C)(C)C)cc2)C(C(=O)NC2CCCCC2)c2cccnc2)N(C#N)C1 (single isomer, unassigned) [Compound 292 Isomer 2]
- EC50 ([1]; read-out: 229E Mpro EC50): < 2 µM
- EC50 ([2]; unidentified human coronavirus): < 2 µM
- IC50 [5, 7]: < 2 µM
- IC50 [4]: < 2 µM

Structure (SMILES): C[C@@]1(O)C[C@H](C(=O)N(c2ccc(S(F)(F)(F)(F)F)cc2)C(C(=O)NC2CCC(F)(F)CC2)c2cccnc2)N(C#N)C1 (single isomer, unassigned) [Compound 1156 Isomer 2]
- EC50 ([1]; read-out: 229E Mpro EC50): < 2 µM
- EC50 [2]: 2 to 10 µM
- IC50 [5, 7]: < 2 µM
- IC50 [4]: < 2 µM

Structure (SMILES): CC(C)(C)c1ccc(N(C(=O)C2CS(=O)(=O)CCN2C#N)C(C(=O)NC2CCCCC2)c2cccnc2)cc1 (centres unmarked) [Compound 226]
- EC50 ([1]; 229E Mpro EC50): < 2 µM
- EC50 ([2]; unidentified human coronavirus): 2 to 10 µM
- IC50 [5, 6]: 2 to 10 µM
- IC50 [4]: < 2 µM

Structure (SMILES): CC(C)(C)c1ccc(N(C(=O)[C@H]2C[C@@H](F)CN2C#N)C(C(=O)NC2CCCCC2)c2cccnc2)cc1 (single isomer, unassigned) [Compound 870 Isomer 2]
- EC50 ([1]; read-out: 229E Mpro EC50): < 2 µM
- EC50 [2]: 2 to 10 µM
- IC50 [5, 7]: < 2 µM
- IC50 [4]: 2 to 10 µM

Structure (SMILES): CC(C)(C)c1ccc(N(C(=O)c2nccnc2C#N)C(C(=O)NC2CCCCC2)c2cccnc2)cc1 (centres unmarked) [Compound 124, N-(4-(tert-butyl)phenyl)-3-cyano-N-(2-(cyclohexylamino)-2-oxo-1-(pyridin-3-yl)ethyl)pyrazine-2-carboxamide]
- EC50 ([1]; 229E Mpro EC50): 10 to 30 µM
- EC50 ([2]; unidentified human coronavirus): 10 to 30 µM
- CC50 [3]: > 30 µM
- IC50 [4]: > 30 µM

Structure (SMILES): N#CN1C[C@H](O)C[C@@H]1C(=O)N(c1ccc(C2CC2)c(F)c1)C(C(=O)NC1CCCCC1)c1cccnc1 (single isomer, unassigned) [Compound 767 Isomer 1]
- EC50 ([1]; 229E Mpro EC50): < 2 µM
- EC50 ([2]; unidentified human coronavirus): 2 to 10 µM
- IC50 [5, 6]: < 2 µM
- IC50 [4]: < 2 µM

Structure (SMILES): CC(C)(C)c1ccc(N(C(=O)[C@H]2C[C@@H](O)CN2C#N)C(C(=O)Nc2c(Cl)cccc2Cl)c2cccnc2)cc1 (stereo partly drawn) [Compound 591, (2R,4R)—N-(4-(tert-butyl)phenyl)-1-cyano-N-(2-((2,6-dichlorophenyl)amino)-2-oxo-1-(pyridin-3-yl)ethyl)-4-hydroxypyrrolidine-2-carboxamide]
- EC50 ([1]; 229E Mpro EC50): 2 to 10 µM
- EC50 ([2]; unidentified human coronavirus): 2 to 10 µM
- IC50 [5, 6]: > 30 µM
- IC50 [4]: 2 to 10 µM

Structure (SMILES): N#CN1C[C@H](O)C[C@@H]1C(=O)N(c1ccc2c(c1)NCCC2)C(C(=O)NC1CCCCC1)c1cccnc1 (single isomer, unassigned) [Compound 755 Isomer 2]
- EC50 ([1]; 229E Mpro EC50): 2 to 10 µM
- EC50 [2]: < 2 µM
- IC50 [5, 7]: 2 to 10 µM
- IC50 [4]: 10 to 30 µM

Structure (SMILES): C[C@@]1(O)C[C@H](C(=O)N(c2ccc(S(F)(F)(F)(F)F)cc2)C(C(=O)NC2CCC(F)(F)CC2)c2cccnc2)N(C#N)C1 (single isomer, unassigned) [Compound 1156 Isomer 1]
- EC50 ([1]; 229E Mpro EC50): < 2 µM
- EC50 ([2]; unidentified human coronavirus): < 2 µM
- IC50 [5, 6]: 2 to 10 µM
- IC50 [4]: 2 to 10 µM

Structure (SMILES): CC(C)(C)c1ccc(C(C(=O)c2cnc[nH]2)C(C(=O)NC2CCCCC2)c2nccnc2C#N)cc1 (centres unmarked) [Compound 105]
- EC50 ([1]; 229E Mpro EC50): 10 to 30 µM
- EC50 ([2]; unidentified human coronavirus): 2 to 10 µM
- CC50 [3]: > 30 µM
- IC50 [4]: > 30 µM

Structure (SMILES): CC(C)(C)c1ccc(N(C(=O)[C@H]2C[C@H](Oc3ccccc3)CN2C#N)C(C(=O)NC2CCCCC2)c2cccnc2)cc1 (single isomer, unassigned) [Compound 308 Isomer 2]
- EC50 ([1]; 229E Mpro EC50): < 2 µM
- EC50 ([2]; unidentified human coronavirus): < 2 µM
- IC50 [5, 7]: > 30 µM
- IC50 [4]: < 2 µM

Structure (SMILES): CC(C)(C)c1ccc(N(C(=O)[C@H]2C[C@@H](O)CN2C#N)C(C(=O)NCCN2CCOCC2)c2cccnc2)cc1 (single isomer, unassigned) [587 Isomer 1]
- EC50 ([1]; 229E Mpro EC50): < 2 µM
- EC50 ([2]; unidentified human coronavirus): < 2 µM
- IC50 [5, 6]: < 2 µM
- IC50 [4]: < 2 µM

Structure (SMILES): CC(C)(C)c1ccc(N(C(=O)c2cnc[nH]2)C(C(=O)NC2CCCCC2)c2cncnc2C#N)cc1 (centres unmarked) [Compound 103, N-(4-(tert-butyl)phenyl)-N-(1-(4-cyanopyrimidin-5-yl)-2-(cyclohexylamino)-2-oxoethyl)-1H-imidazole-5-carboxamide]
- EC50 ([1]; 229E Mpro EC50): 2 to 10 µM
- EC50 ([2]; unidentified human coronavirus): 10 to 30 µM
- CC50 [3]: > 30 µM
- IC50 [4]: 10 to 30 µM

— patent US20220380347A1, “INHIBITORS OF CYSTEINE PROTEASES AND METHODS OF USE THEREOF” (Pardes Biosciences, Inc., priority 2020, published 2022)
